Test results as given in patent US20230026232A1, “AHR INHIBITORS AND USES THEREOF” (Ikena Oncology, Inc., priority 2019, published 2023).

Experiments:
AHR = AHR activity in human and rodent cell lines (summary); assay type: cell-based
Source text: Compound A is a selective AHR antagonist being developed as an orally administered therapeutic. […] Compound A inhibits CYP1A1 and interleukin (IL)-22 gene expression and leads to an increase in pro-inflammatory cytokines, such as IL-2 and IL-9.

CT26.WT = CT26.WT syngeneic colorectal cancer model, tumor growth, survival and re-challenge; assay type: in vivo, Balb/cJ mice
Description: The effect of single agent Compound A, and Compound A in combination with anti-PD-1 antibody (BioXcell RMP1-14) on TGI and tumor survival was evaluated in the CT26.WT syngeneic model of colorectal cancer. Balb/cJ female mice were inoculated subcutaneously with tumor cells and 4 days after inoculation, Compound A (10 mg/kg or 25 mg/kg) or Vehicle was administered orally QD for a total of 53 doses. Concurrently, anti-PD-1 antibody (10 mg/kg) was administered IP twice a week for a total of 5 doses.
At ≥95 days after the appearance of CRs in mice treated with the combination of Compound A and anti-PD-1 antibody, the responder animals were re-challenged with CT26.WT cells. Five naïve mice were also injected with CT26.WT cells as a positive control for tumor formation.

## CC(C)c1cnn2c(N[C@@H]3CCc4[nH]c5ccccc5c4C3)nc(-c3cncc(F)c3)nc12 [Compound A, (R)—N-(2-(5-fluoropyridin-3-yl)-8-isopropylpyrazolo[1,5-a][1,3,5]triazin-4-yl)-2,3,4,9-tetrahydro-1H-carbazol-3-amine]
AHR
  IC50: 35 to 150 nM
CT26.WT; Compound A 10 mg/kg PO QD (alone or with anti-PD-1 10 mg/kg IP twice a week)
  TGI relative to vehicle treated mice: 39.8%
CT26.WT; Compound A 25 mg/kg PO QD (alone or with anti-PD-1 10 mg/kg IP twice a week)
  TGI relative to vehicle treated mice: 40.9%
